Our source for the IC50 values is patent US12258328B2, “6-membered heteroaryl-containing aminopyridine compounds as EGFR inhibitors” (YUHAN CORPORATION, priority 2021, dated 2025).

Test [1] concerns the target EGFR del19/T790M/C797S (Homo sapiens, UniProt P00533, C797S/DEL746-750/T790M). Kind of test: Biochemical EGFR kinase assay (Lance Ultra TR-FRET), triple mutant del19/T790M/C797S. The essentials:
(§1)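 In this biochemical assay, phosphorylation after a one-hour room-temperature reaction was detected with europium-labelled anti-phosphopeptide antibody at 2 nM final concentration.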
(Time-resolved FRET reads energy transfer from a long-lived donor to a nearby acceptor.)

Test [2] addresses EGFR L858R/T790M/C797S (Homo sapiens, UniProt P00533, C797S/L858R/T790M). The test is described as follows: Biochemical EGFR kinase assay (Lance Ultra TR-FRET), triple mutant L858R/T790M/C797S. The essentials:
as §1

In test [3] the target is EGFR del19/C797S (Homo sapiens, UniProt P00533, C797S/DEL746-750). Kind of test: Biochemical EGFR kinase assay (Lance Ultra TR-FRET), double mutant del19/C797S. The essentials: as §1
Test [4] deals with EGFR L858R/C797S (Homo sapiens, UniProt P00533, C797S/L858R). The test is described as follows: Biochemical EGFR kinase assay (Lance Ultra TR-FRET), double mutant L858R/C797S. The essentials:
as §1

For test [5], the target named is EGFR wildtype (Homo sapiens, UniProt P00533). Kind of test: Biochemical EGFR kinase assay (Lance Ultra TR-FRET), wildtype. The essentials:
as §1

The mark [6] stands for this setting: ATP at Km, read-out: IC50 del19/T790M/C797S, Km ATP.
Where [7] appears, read: ATP at Km, read-out: IC50 L858R/T790M/C797S, Km ATP.
Setting [8] is: ATP at Km, read-out: IC50 del19/C797S, Km ATP.
The mark [9] stands for this setting: ATP at Km, read-out: IC50 L858R/C797S, Km ATP.
The mark [10] stands for this setting: ATP at Km, read-out: IC50 WT, Km ATP.
[11] abbreviates: IC50 del19/T790M/C797S, 100 μM ATP.
Where [12] appears, read: IC50 L858R/T790M/C797S, 100 μM ATP.
Where [13] appears, read: IC50 del19/T790M/C797S (nM) 100 μM ATP, 100 μM ATP.
The mark [14] stands for this setting: Km ATP, read-out: IC50 del19/T790M/C797S (nM) Km ATP.
Where [15] appears, read: IC50 L858R/T790M/C797S (nM) 100 μM ATP, 100 μM ATP.
[16] abbreviates: Km ATP, read-out: IC50 L858R/T790M/C797S (nM) Km ATP.
The mark [17] stands for this setting: IC50 del19/C797S (nM) 100 μM ATP, 100 μM ATP.
[18] abbreviates: Km ATP, read-out: IC50 del19/C797S (nM) Km ATP.
[19] abbreviates: IC50 L858R/C797S (nM) 100 μM ATP, 100 μM ATP.
Where [20] appears, read: Km ATP, read-out: IC50 L858R/C797S (nM) Km ATP.
Setting [21] is: IC50 WT (nM) 100 μM ATP, 100 μM ATP.
Where [22] appears, read: Km ATP, read-out: IC50 WT (nM) Km ATP.

The structures appear in SMILES notation. Read-outs that look alike come from different tables or passages of the source.

Sequence of EGFR del19/C797S (P00533 with tags, fused parts or gaps DEL746-750/C797S): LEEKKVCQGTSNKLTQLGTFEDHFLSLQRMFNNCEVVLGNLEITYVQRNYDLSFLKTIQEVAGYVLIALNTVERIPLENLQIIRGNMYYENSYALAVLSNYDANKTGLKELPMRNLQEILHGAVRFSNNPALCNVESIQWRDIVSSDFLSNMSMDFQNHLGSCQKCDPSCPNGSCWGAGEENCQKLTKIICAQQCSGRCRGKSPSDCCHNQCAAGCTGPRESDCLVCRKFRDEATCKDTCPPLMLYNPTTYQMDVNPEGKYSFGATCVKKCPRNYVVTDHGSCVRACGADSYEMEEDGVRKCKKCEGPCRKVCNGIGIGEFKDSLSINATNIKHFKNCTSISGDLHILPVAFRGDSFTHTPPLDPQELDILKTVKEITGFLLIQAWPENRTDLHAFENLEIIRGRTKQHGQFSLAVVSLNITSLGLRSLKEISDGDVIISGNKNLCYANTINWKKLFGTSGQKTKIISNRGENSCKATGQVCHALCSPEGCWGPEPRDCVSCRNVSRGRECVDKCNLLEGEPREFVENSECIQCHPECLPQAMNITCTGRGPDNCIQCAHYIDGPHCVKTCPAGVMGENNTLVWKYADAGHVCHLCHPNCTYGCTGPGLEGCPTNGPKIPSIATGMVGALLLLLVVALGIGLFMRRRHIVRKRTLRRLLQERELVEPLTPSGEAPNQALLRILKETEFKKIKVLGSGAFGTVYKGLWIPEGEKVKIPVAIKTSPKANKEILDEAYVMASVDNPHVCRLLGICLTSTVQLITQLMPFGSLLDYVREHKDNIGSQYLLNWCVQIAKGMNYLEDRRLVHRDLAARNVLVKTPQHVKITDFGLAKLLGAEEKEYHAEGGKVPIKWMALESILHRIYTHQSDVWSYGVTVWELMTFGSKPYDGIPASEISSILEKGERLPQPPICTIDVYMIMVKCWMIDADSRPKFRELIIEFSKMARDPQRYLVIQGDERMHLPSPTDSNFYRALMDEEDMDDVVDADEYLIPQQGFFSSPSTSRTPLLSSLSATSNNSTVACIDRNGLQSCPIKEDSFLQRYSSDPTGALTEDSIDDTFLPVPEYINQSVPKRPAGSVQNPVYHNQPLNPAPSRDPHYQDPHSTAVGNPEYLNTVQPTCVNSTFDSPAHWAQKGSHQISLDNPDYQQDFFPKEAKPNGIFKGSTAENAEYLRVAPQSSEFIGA
Sequence of EGFR del19/T790M/C797S (P00533 with tags, fused parts or gaps DEL746-750/T790M/C797S): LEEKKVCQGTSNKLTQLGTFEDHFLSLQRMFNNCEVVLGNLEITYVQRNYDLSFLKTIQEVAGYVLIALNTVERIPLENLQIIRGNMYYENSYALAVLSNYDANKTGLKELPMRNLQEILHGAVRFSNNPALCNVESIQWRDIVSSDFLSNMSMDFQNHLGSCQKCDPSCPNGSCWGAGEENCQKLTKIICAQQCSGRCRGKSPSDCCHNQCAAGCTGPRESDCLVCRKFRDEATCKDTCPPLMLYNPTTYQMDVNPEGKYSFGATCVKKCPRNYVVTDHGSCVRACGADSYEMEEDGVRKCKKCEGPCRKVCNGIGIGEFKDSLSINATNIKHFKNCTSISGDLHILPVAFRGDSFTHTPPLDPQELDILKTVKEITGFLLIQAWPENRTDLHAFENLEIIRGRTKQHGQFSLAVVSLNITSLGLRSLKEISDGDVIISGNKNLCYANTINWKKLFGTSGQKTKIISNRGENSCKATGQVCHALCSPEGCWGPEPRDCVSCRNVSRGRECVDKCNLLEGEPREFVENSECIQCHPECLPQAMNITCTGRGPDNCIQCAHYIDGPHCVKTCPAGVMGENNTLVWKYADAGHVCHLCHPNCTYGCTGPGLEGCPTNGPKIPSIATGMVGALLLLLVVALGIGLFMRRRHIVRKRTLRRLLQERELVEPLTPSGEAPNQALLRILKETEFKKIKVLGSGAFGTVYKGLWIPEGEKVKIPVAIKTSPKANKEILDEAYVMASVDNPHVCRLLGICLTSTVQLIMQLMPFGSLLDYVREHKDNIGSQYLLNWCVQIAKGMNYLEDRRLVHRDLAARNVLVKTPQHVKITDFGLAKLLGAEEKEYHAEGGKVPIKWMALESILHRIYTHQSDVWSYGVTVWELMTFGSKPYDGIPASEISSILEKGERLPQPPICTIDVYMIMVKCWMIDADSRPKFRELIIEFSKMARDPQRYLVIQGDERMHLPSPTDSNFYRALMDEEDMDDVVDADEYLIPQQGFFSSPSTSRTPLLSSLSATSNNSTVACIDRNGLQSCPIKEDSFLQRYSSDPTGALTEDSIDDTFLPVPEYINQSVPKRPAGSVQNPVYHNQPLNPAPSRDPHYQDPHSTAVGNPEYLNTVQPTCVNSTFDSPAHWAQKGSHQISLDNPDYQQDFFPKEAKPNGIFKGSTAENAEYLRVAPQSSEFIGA
Sequence of EGFR wildtype (P00533 25-1210): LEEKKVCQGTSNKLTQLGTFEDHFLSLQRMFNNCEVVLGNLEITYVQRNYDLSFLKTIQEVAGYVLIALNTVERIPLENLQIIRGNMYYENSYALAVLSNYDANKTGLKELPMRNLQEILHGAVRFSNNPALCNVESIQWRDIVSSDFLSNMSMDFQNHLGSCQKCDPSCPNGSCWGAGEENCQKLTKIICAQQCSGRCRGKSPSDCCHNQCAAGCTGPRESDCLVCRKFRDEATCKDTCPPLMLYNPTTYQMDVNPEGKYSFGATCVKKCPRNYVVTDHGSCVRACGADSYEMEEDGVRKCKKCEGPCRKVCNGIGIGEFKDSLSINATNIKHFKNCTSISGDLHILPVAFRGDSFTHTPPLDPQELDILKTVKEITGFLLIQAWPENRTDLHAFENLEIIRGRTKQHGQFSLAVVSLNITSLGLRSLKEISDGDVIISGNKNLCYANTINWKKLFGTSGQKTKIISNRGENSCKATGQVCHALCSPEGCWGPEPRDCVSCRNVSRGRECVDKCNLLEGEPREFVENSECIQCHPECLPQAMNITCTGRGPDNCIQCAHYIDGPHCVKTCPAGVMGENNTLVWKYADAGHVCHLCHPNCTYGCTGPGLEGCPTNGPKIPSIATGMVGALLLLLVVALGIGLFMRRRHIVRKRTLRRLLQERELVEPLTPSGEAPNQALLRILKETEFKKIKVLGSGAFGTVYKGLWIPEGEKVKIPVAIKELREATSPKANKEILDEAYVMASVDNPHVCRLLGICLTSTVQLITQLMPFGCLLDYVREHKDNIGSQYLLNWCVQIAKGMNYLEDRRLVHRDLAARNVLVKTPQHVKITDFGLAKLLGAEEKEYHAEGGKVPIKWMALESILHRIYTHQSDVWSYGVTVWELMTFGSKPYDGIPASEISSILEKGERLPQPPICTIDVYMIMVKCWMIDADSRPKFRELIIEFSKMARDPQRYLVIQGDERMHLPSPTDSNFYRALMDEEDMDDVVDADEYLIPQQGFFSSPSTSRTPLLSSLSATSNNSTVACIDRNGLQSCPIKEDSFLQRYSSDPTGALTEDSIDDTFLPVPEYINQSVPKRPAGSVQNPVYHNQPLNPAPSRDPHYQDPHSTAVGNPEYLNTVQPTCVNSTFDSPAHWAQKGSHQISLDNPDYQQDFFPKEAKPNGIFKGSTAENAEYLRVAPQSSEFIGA
Sequence of EGFR L858R/C797S (P00533 25-1210 C797S/L858R): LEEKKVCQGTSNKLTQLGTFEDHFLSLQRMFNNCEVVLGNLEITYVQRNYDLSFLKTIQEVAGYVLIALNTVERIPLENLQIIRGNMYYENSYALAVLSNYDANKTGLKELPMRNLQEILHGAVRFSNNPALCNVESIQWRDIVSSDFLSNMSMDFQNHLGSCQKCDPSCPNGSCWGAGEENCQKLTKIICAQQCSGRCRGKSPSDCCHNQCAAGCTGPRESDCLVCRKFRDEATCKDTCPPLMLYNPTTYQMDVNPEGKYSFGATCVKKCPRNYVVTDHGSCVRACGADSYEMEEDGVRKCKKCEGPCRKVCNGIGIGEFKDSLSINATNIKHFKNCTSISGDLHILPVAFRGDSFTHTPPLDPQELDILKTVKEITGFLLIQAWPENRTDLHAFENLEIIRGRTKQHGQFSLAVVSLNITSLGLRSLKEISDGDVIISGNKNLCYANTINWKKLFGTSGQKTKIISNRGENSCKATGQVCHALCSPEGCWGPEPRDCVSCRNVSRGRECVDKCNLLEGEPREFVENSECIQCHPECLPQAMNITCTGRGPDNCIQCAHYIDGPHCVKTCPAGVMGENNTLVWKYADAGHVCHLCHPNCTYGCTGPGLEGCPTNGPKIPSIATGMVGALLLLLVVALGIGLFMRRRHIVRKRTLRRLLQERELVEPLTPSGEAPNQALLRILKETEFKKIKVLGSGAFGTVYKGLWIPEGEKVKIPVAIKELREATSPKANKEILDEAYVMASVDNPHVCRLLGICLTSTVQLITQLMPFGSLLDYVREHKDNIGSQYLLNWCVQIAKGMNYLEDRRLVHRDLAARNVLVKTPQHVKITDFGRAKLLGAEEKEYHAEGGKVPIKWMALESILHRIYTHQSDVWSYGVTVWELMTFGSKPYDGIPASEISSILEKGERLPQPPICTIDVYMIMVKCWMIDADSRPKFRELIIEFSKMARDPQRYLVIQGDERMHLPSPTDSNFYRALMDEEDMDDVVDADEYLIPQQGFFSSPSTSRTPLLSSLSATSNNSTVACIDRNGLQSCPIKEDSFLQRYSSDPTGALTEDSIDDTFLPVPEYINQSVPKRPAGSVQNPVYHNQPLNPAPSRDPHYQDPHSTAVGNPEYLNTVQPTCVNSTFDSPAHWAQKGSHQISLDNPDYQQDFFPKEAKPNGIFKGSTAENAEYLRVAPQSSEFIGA

With `CN1CCC(Oc2ccc(-c3cnc(Nc4ccnc(-c5cnn(S(=O)(=O)C6CC6)c5)n4)cc3NC3CCCN(CCF)C3)nc2)CC1` (stereo not drawn) [Example 257, N^6′-(2-(1-(Cyclopropylsulfonyl)-1H-pyrazol-4-yl)pyrimidin-4-yl)-N^4′-(1-(2-fluoroethyl)piperidin-3-yl)-5-((1-methylpiperidin-4-yl)oxy)-[2,3′-bipyridine]-4′,6′-diamine], the IC50 in test [1] (setting [6]) was found to be 0.4 nM; in test [2] (setting [7]), 0.2 nM; in test [3] (setting [8]), 1 nM; in test [4] (setting [9]), 0.4 nM; in test [5] (setting [10]), 7.4 nM.
As for `CN(C)S(=O)(=O)c1ccc(-c2cnc(Nc3ccnc(-c4cnn(S(=O)(=O)C5CC5)c4)n3)cc2N[C@H]2CC[C@@H](C(C)(C)O)CC2)nc1` [Example 165, 6′-((2-(1-(Cyclopropylsulfonyl)-1H-pyrazol-4-yl)pyrimidin-4-yl)amino)-4′-(((1s,4s)-4-(2-hydroxypropan-2-yl)cyclohexyl)amino)-N,N-dimethyl-[2,3′-bipyridine]-5-sulfonamide], the IC50 in test [1] (setting [6]) was found to be 3.5 nM; in test [1] (setting [11]), 1.2 nM; in test [2] (setting [7]), 1 nM; in test [2] (setting [12]), 1.7 nM; in test [3] (setting [8]) it was 1.8 nM; in test [3] (IC50 del19/C797S, 100 μM ATP), 7.6 nM. For the same compound, the IC50 is 1.6 nM in test [4] (setting [9]); 18.5 nM in test [4] (IC50 L858R/C797S, 100 μM ATP); more than 10000 nM in test [5] (IC50 WT, 100 μM ATP).
Regarding `CN1CCC(Oc2ccc(-c3cnc(Nc4ccnc(-c5cnn(S(=O)(=O)C6CC6)c5)n4)cc3N[C@H]3CC[C@@H](CO)CC3)nc2)CC1` [Example 251, ((1s,4s)-4-((6′-((2-(1-(Cyclopropylsulfonyl)-1H-pyrazol-4-yl)pyrimidin-4-yl)amino)-5-((1-methylpiperidin-4-yl)oxy)-[2,3′-bipyridin]-4′-yl)amino)cyclohexyl)methanol], the IC50 in test [1] (setting [6]) came out at 0.5 nM; in test [2] (setting [7]), 0.1 nM; in test [3] (setting [8]) it was 0.2 nM; in test [4] (setting [9]) it was 0.3 nM; in test [5] (setting [10]), 0.2 nM.
As to `CC(C)(O)[C@H]1CC[C@@H](Nc2cc(Nc3ccnc(-c4cnn(S(=O)(=O)C5CC5)c4)n3)ncc2-c2ccc(N3CCCC3)cn2)CC1` [Example 82, 2-((1s,4s)-4-((6′-((2-(1-(Cyclopropylsulfonyl)-1H-pyrazol-4-yl)pyrimidin-4-yl)amino)-5-(pyrrolidin-1-yl)-[2,3′-bipyridin]-4′-yl)amino)cyclohexyl)propan-2-ol], the IC50 in test [1] (setting [13]) is 10.5 nM; in test [1] (setting [14]) it was 6.5 nM; in test [2] (setting [15]), 15.4 nM; in test [2] (setting [16]), 2.8 nM; in test [3] (setting [17]), 13.3 nM; in test [3] (setting [18]) it was 7.9 nM. Besides, the IC50 in test [4] (setting [19]) was 73.3 nM; in test [4] (setting [20]), 7.8 nM; in test [5] (setting [21]), more than 10000 nM; in test [5] (setting [22]) it was 29.6 nM.
On to `CN(C)C[C@H]1CC[C@@H](Nc2cc(Nc3ccnc(-c4cnn(S(=O)(=O)C5CC5)c4)n3)ncc2-c2cc(NC3CC(F)(F)C3)ccn2)CC1` [Example 216, N^6′-(2-(1-(Cyclopropylsulfonyl)-1H-pyrazol-4-yl)pyrimidin-4-yl)-N^4-(3,3-difluorocyclobutyl)-N^4′-((1s,4s)-4-((dimethylamino)methyl)cyclohexyl)-[2,3′-bipyridine]-4,4′,6′-triamine], for which the IC50 in test [1] (setting [6]) stood at 1.2 nM; in test [1] (setting [11]) it was 1.2 nM; in test [2] (setting [7]) it was 0.8 nM; in test [2] (setting [12]), 0.7 nM; in test [3] (setting [8]), 0.8 nM; in test [3] (IC50 del19/C797S, 100 μM ATP) it was 1.3 nM. Further, the IC50 came to 0.3 nM in test [4] (setting [9]); 1.4 nM in test [4] (IC50 L858R/C797S, 100 μM ATP); 0.8 nM in test [5] (setting [10]); 136 nM in test [5] (IC50 WT, 100 μM ATP).
With `C[C@]1(O)CC[C@@H](Nc2cc(Nc3nc(-c4cnn(S(=O)(=O)C5CC5)c4)ncc3F)ncc2-c2ccc(CC(F)(F)F)cn2)CC1` [Example 299, (1s,4s)-4-((6′-((2-(1-(Cyclopropylsulfonyl)-1H-pyrazol-4-yl)-5-fluoropyrimidin-4-yl)amino)-5-(2,2,2-trifluoroethyl)-[2,3′-bipyridin]-4′-yl)amino)-1-methylcyclohexan-1-ol], the IC50 in test [1] (setting [6]) worked out at 5.7 nM; in test [2] (setting [7]), 3.2 nM; in test [3] (setting [8]) it was 28.6 nM; in test [4] (setting [9]) it was 8.5 nM; in test [5] (setting [10]), 245 nM.
As to `CN1CCN(c2ccc(-c3cnc(Nc4ccnc(-c5cnn(S(=O)(=O)C6CC6)c5)n4)cc3N[C@H]3CC[C@@H](C(C)(C)O)CC3)nc2)CC1` [Example 84, 2-((1s,4s)-4-((6′-((2-(1-(Cyclopropylsulfonyl)-1H-pyrazol-4-yl)pyrimidin-4-yl)amino)-5-(4-methylpiperazin-1-yl)-[2,3′-bipyridin]-4′-yl)amino)cyclohexyl)propan-2-ol], the IC50 in test [1] (setting [13]) amounted to 0.7 nM; in test [1] (setting [14]), 0.9 nM; in test [2] (setting [15]), 0.5 nM; in test [2] (setting [16]), 0.3 nM; in test [3] (setting [17]), 0.6 nM; in test [3] (setting [18]) it was 0.4 nM. In addition, the IC50 in test [4] (setting [19]) is 0.5 nM; in test [4] (setting [20]), 0.2 nM; in test [5] (setting [21]), 181 nM; in test [5] (setting [22]), 0.6 nM.
Turning to `CC(O)(c1ccc(-c2cnc(Nc3ccnc(-c4cnn(S(=O)(=O)C5CC5)c4)n3)cc2NC2CCC(CO)CC2)nc1)C(F)(F)F` (stereo not drawn) [Example 231, 2-(6′-((2-(1-(Cyclopropylsulfonyl)-1H-pyrazol-4-yl)pyrimidin-4-yl)amino)-4′-(((1s,4s)-4-(hydroxymethyl)cyclohexyl)amino)-[2,3′-bipyridin]-5-yl)-1,1,1-trifluoropropan-2-ol], the IC50 in test [1] (setting [6]) came out at 1.4 nM; in test [1] (setting [11]), 2 nM; in test [2] (setting [7]), 0.4 nM; in test [2] (setting [12]), 0.9 nM; in test [3] (setting [8]) it was 1.7 nM; in test [3] (IC50 del19/C797S, 100 μM ATP) it was 6.4 nM. For the same compound, the IC50 amounted to 1.2 nM in test [4] (setting [9]); 4.6 nM in test [4] (IC50 L858R/C797S, 100 μM ATP); 4.1 nM in test [5] (setting [10]); 502 nM in test [5] (IC50 WT, 100 μM ATP).
For the compound `C[C@]1(O)CC[C@@H](Nc2cc(Nc3ccnc(-c4cnn(S(=O)(=O)C5CC5)c4)n3)ncc2-c2ccc(C(F)(F)F)nn2)CC1` [Example 51, (1s,4s)-4-((2-((2-(1-(Cyclopropylsulfonyl)-1H-pyrazol-4-yl)pyrimidin-4-yl)amino)-5-(6-(trifluoromethyl)pyridazin-3-yl)pyridin-4-yl)amino)-1-methylcyclohexan-1-ol], the IC50 in test [1] (setting [13]) turned out to be 0.6 nM; in test [1] (setting [14]), 0.8 nM; in test [2] (setting [15]) it was 0.6 nM; in test [2] (setting [16]) it was 0.3 nM; in test [3] (setting [17]), 10.6 nM; in test [3] (setting [18]) it was 3.1 nM. The values for the IC50 in test [4] (setting [19]), in test [4] (setting [20]) and in test [5] (setting [21]) were 16.7 nM, 1 nM and more than 10000 nM, respectively.
For the compound `COC1CN(c2ccc(-c3cnc(Nc4ccnc(-c5cnn(S(=O)(=O)C6CC6)c5)n4)cc3N[C@H]3CC[C@@](C)(O)CC3)nc2)C1` [Example 90, (1s,4s)-4-((6′-((2-(1-(Cyclopropylsulfonyl)-1H-pyrazol-4-yl)pyrimidin-4-yl)amino)-5-(3-methoxyazetidin-1-yl)-[2,3′-bipyridin]-4′-yl)amino)-1-methylcyclohexan-1-ol], the IC50 was 0.4 nM in test [1] (setting [13]); 0.6 nM in test [1] (setting [14]); 0.4 nM in test [2] (setting [15]); 0.3 nM in test [2] (setting [16]); 0.9 nM in test [3] (setting [17]); 0.4 nM in test [3] (setting [18]). In addition, the IC50 in test [4] (setting [19]) turned out to be 15.1 nM; in test [4] (setting [20]), 0.4 nM; in test [5] (setting [21]), 406 nM; in test [5] (setting [22]) it was 0.4 nM.
As for `CN(C)C[C@H]1CC[C@@H](Nc2cc(Nc3ccnc(-c4cnn(S(=O)(=O)C5CC5)c4)n3)ncc2-c2cc(C(F)F)ccn2)CC1` [Example 79, N^6′-(2-(1-(Cyclopropylsulfonyl)-1H-pyrazol-4-yl)pyrimidin-4-yl)-4-(difluoromethyl)-N^4′-((1s,4s)-4-((dimethylamino)methyl)cyclohexyl)-[2,3′-bipyridine]-4′,6′-diamine], the IC50 in test [1] (setting [13]) was 0.5 nM; in test [1] (setting [14]), 0.8 nM; in test [2] (setting [15]) it was 0.5 nM; in test [2] (setting [16]) it was 0.3 nM; in test [3] (setting [17]), 0.6 nM; in test [3] (setting [18]), 0.4 nM. For the same compound, the IC50 in test [4] (setting [19]) came out at 4.7 nM; in test [4] (setting [20]), 0.7 nM; in test [5] (setting [21]) it was 450 nM; in test [5] (setting [22]), 1.4 nM.
